# Results published in paper PMC6925343 (ACS chemical biology, 2019).
# Key:
# [1] = tested on: RANBP3 Ser58/Ser126 phosphorylation; assay: RANBP3 Ser58/Ser126 phosphorylation in CSA treated HeLa cells, Western blot; type: cell-based; details: CSA 45 min, anti-pSer58/pSer126-RANBP3 antibody
# [2] = tested on: SMAD2 localization in HeLa cells; details: CSA 45 min, n = 90 cells, three independent replicates
substance,measurement,setting,value
Cyclosporine A [CSA],increase of Ser58/Ser126 phosphorylation of RANBP3,[1],approximately 2 fold
same,total SMAD2 levels,[2],not changed
